Experimental data as given in article PMC8880361, “Design, Molecular Docking, Synthesis, Anticancer and Anti-Hyperglycemic Assessments of Thiazolidine-2,4-diones Bearing Sulfonylthiourea Moieties as Potent VEGFR-2 Inhibitors and PPARγ Agonists” (Pharmaceuticals, 2022).

Tests used:
[1] = test system: isolated pancreatic islets of rats; assay: In vitro insulin secretion assay (sandwich enzyme immunoassay); type: cell-based; details: Pancreatic islet; isolated rat pancreatic islets; concentration for 50% of the maximum action; n = 3; read-out: EC50 Insulin Secreting Activity
Method: Compounds 5a–c, 6a–c and 7a–c were also assessed to establish their insulin-secretion activities in vitro against isolated pancreatic islets of rats through the quantitative sandwich technique of enzyme immunoassay. Glimiperide was applied as the standard. The findings are described as the EC50 values (Table 4).

HepG2 = assay: In vitro cytotoxicity, MTT colorimetric assay; type: cell-based, human; details: for IC50: Homo sapiens, HepG2, MTT, mean ± S.D. of triplet separate experiments; for fold more toxic against HepG2 than normal VERO cells: ratio VERO vs HepG2
HCT116 = assay: In vitro cytotoxicity, MTT colorimetric assay; type: cell-based, human; details: for IC50: Homo sapiens, HCT-116, MTT, mean ± S.D. of triplet separate experiments; for fold more toxic in HCT-116 than in normal VERO cells: ratio VERO vs HCT-116
MCF-7 = assay: In vitro cytotoxicity, MTT colorimetric assay; type: cell-based, human; details: for IC50: Homo sapiens, MCF7, MTT, mean ± S.D. of triplet separate experiments; for fold higher toxicity in MCF-7 than in normal VERO cells: ratio VERO vs MCF-7
VEGFR-2 = VEGFR-2 (Homo sapiens, UniProt P35968); assay: In vitro VEGFR-2 kinase assay (anti-phosphotyrosine antibody, Alpha Screen system); type: biochemical; details: mean ± S.D. of triplet separate experiments
VEGFR-2, sequence (P35968 20-1356): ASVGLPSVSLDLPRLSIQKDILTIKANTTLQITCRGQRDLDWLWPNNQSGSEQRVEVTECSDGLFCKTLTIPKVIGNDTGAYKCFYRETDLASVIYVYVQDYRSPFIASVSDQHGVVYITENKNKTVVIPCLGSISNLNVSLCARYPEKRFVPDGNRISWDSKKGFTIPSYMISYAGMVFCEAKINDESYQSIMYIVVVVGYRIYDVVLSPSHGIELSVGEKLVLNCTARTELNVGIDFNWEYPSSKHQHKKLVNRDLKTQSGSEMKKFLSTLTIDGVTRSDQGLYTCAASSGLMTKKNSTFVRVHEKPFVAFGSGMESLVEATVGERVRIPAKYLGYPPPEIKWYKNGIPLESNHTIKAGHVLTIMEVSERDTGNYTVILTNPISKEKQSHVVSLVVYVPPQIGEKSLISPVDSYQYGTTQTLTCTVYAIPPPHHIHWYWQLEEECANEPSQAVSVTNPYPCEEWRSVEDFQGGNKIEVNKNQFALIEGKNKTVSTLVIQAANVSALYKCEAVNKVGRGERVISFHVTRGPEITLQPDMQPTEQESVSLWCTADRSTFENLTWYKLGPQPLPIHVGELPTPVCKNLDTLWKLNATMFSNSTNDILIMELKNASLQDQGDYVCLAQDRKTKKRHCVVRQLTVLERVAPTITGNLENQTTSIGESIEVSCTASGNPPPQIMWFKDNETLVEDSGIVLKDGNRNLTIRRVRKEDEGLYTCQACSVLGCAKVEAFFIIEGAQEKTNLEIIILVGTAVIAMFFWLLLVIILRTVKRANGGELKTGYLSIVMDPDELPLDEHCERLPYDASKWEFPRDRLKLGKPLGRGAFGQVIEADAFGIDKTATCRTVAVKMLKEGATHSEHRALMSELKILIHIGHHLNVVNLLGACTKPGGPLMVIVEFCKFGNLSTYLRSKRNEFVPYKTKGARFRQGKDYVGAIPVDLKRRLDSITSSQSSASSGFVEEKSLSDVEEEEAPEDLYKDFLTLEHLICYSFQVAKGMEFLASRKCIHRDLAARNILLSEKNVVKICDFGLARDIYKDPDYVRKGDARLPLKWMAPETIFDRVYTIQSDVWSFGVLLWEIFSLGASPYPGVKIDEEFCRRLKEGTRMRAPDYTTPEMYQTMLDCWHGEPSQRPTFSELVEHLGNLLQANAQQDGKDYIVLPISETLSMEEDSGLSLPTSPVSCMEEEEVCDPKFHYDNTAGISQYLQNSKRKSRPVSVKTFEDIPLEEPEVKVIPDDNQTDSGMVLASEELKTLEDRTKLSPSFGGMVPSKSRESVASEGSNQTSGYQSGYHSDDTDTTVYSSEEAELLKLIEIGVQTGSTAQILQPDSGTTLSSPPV

PPARγ = target: T1, PPARγ (Homo sapiens, UniProt P37231); assay: In vitro PPARγ ligand binding assay (Fluorescence Polarization); details: concentration required to displace 50% of the titrated ligand; n = 3; read-out: IC50 PPARγ Binding Affinity
T1 sequence (P37231 1-505): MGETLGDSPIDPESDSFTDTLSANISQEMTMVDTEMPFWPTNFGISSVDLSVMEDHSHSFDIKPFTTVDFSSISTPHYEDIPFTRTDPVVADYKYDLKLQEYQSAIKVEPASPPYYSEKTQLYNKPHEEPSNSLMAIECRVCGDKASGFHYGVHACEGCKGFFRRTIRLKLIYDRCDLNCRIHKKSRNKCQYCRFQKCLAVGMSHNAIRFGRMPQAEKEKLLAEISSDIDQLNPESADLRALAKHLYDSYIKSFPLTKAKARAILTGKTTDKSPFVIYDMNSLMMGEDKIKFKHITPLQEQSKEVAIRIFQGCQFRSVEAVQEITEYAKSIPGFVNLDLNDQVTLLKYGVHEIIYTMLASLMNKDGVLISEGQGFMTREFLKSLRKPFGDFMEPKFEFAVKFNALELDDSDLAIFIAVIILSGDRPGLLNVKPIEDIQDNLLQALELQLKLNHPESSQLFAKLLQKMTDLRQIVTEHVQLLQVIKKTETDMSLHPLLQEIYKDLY

VERO normal cell lines = assay: Cytotoxicity against normal cells; type: cell-based; details: Chlorocebus sabaeus, mean ± S.D. of triplet separate experiments
Method: The cytotoxic effects of the prepared derivatives against the malignant cell lines ranged from 5.77 to 17.65 μM. Derivatives 6a–c and 7a–c were, respectively, 3.41-, 3.83-, 6.93-, 4.99-, 5.45- and 7.74-fold times more toxic against HepG2 than normal VERO cells. Similarly, derivatives 6a-c and 7a-c were, respectively, 2.74-, 2.97-, 6.04-, 3.58-, 3.90- and 11.83-fold more toxic in HCT-116 than in normal VERO cells.

Structure (SMILES) | EC50 [1] | IC50 (HepG2) | IC50 (HCT116) | IC50 (MCF-7) | IC50 (VEGFR-2) | IC50 (PPARγ) | melting point | fold more toxic against HepG2 than normal VERO cells (HepG2) | fold more toxic in HCT-116 than in normal VERO cells (HCT116) | fold higher toxicity in MCF-7 than in normal VERO cells (MCF-7) | IC50 (VERO normal cell lines)
CCC1=C(C)CN(C(=O)NCCc2ccc(S(=O)(=O)NC(=O)N[C@H]3CC[C@H](C)CC3)cc2)C1=O [Glimiperide, reference compound] | 0.73 µM |  |  |  |  |  |  |  |  |  | 
CCNC(=S)NS(=O)(=O)c1ccc(NC(=O)CN2C(=O)CSC2=O)cc1 [Compound 5a, 2-(2,4-Dioxothiazolidin-3-yl)-N-(4-(N-(ethylcarbamothioyl)sulfamoyl)phenyl)acetamide] | 1.2 µM | 24.5 ± 2.2 µM | 40.1 ± 2.2 µM | 28.8 ± 2.2 µM | 0.46 ± 0.05 µM | 0.393 µM |  |  |  |  | 
O=C(CN1C(=O)CSC1=O)Nc1ccc(S(=O)(=O)NC(=S)NC2CCCCC2)cc1 [Compound 5c, N-(4-(N-(Cyclohexylcarbamothioyl)sulfamoyl)phenyl)-2-(2,4-dioxothiazolidin-3-yl)acetamide] | 1 µM | 20.8 ± 2.6 µM | 23.6 ± 2.6 µM | 24.6 ± 2.6 µM | 0.44 ± 0.05 µM | 0.36 µM | 267 to 269 °C |  |  |  | 
NS(=O)(=O)c1ccc(NC(=O)CN2C(=O)SC(=Cc3ccccc3)C2=O)cc1 [Compound 4a, 2-(5-Benzylidene-2,4-dioxothiazolidin-3-yl)-N-(4-sulfamoylphenyl)acetamide] |  | 52.9 ± 5.1 µM | 55.1 ± 5.1 µM | 55 ± 5.1 µM | 0.92 ± 0.06 µM |  | 226 to 228 °C |  |  |  | 
COc1cccc2c1C(=O)c1c(O)c3c(c(O)c1C2=O)C[C@@](O)(C(=O)CO)C[C@@H]3O[C@H]1C[C@H](N)[C@H](O)[C@H](C)O1 [Doxorubicin, reference compound] |  | 7.94 ± 0.6 µM |  | 6.75 ± 0.4 µM |  |  |  |  |  |  | 
O=C(CN1C(=O)SC(=Cc2ccccc2)C1=O)Nc1ccc(S(=O)(=O)NC(=S)Nc2ccccc2)cc1 [Compound 6b, 2-(5-Benzylidene-2,4-dioxothiazolidin-3-yl)-N-(4-(N-(phenylcarbamothioyl)sulfamoyl)phenyl)-acetamide] | 0.78 µM | 10.7 ± 1.6 µM | 13.8 ± 1.2 µM | 13 ± 1.2 µM | 0.15 ± 0.02 µM | 0.308 µM | 286 to 288 °C | 3.83 fold | 2.97 fold | 3.16 fold | 40.88 ± 0.22 µM
O=C(CN1C(=O)CSC1=O)Nc1ccc(S(=O)(=O)NC(=S)Nc2ccccc2)cc1 [Compound 5b, 2-(2,4-Dioxothiazolidin-3-yl)-N-(4-(N-(phenylcarbamothioyl)sulfamoyl)phenyl)acetamide] | 1.13 µM | 22 ± 2 µM | 25.7 ± 2 µM | 23.2 ± 2 µM | 0.44 ± 0.05 µM | 0.377 µM | 262 to 264 °C |  |  |  | 
Cc1ccc(C=C2SC(=O)N(CC(=O)Nc3ccc(S(=O)(=O)NC(=S)Nc4ccccc4)cc3)C2=O)cc1 [Compound 7b, 2-(5-(4-Methylbenzylidene)-2,4-dioxothiazolidin-3-yl)-N-(4-(N-(phenylcarbamothioyl)sulfamoyl)-phenyl)acetamide] | 0.75 µM | 9.65 ± 1.7 µM | 13.5 ± 1.6 µM | 12.9 ± 1.7 µM | 0.11 ± 0.02 µM | 0.305 µM |  | 5.45 fold | 3.90 fold | 4.08 fold | 52.61 ± 0.22 µM
NS(=O)(=O)c1ccc(NC(=O)CN2C(=O)CSC2=O)cc1 [Compound 3, 2-(2,4-Dioxothiazolidin-3-yl)-N-(4-Sulfamoylphenyl)-Acetamide] |  | 58.6 ± 5.1 µM | 61.5 ± 5.1 µM | 60.2 ± 5.1 µM | 0.93 ± 0.06 µM |  |  |  |  |  | 
Cc1ccc(C=C2SC(=O)N(CC(=O)Nc3ccc(S(N)(=O)=O)cc3)C2=O)cc1 [Compound 4b, 2-(5-(4-Methylbenzylidene)-2,4-dioxothiazolidin-3-yl)-N-(4-sulfamoylphenyl)acetamide] |  | 48.6 ± 5.1 µM | 57.9 ± 5.1 µM | 62.4 ± 5.1 µM | 0.89 ± 0.06 µM |  | 240 to 242 °C |  |  |  | 
Cc1ccc(C=C2SC(=O)N(CC(=O)Nc3ccc(S(=O)(=O)NC(=S)NC4CCCCC4)cc3)C2=O)cc1 [Compound 7c, N-(4-(N-(Cyclohexylcarbamothioyl)sulfamoyl)phenyl)-2-(5-(4-methylbenzylidene)-2,4-dioxothiazolidin-3-yl)acetamide] | 0.7 µM | 8.82 ± 1.9 µM | 5.77 ± 1.9 µM | 7.78 ± 1.9 µM | 0.08 ± 0.02 µM | 0.296 µM |  | 7.74 fold | 11.83 fold | 8.77 fold | 68.25 ± 0.21 µM
O=C(CN1C(=O)SC(=Cc2ccccc2)C1=O)Nc1ccc(S(=O)(=O)NC(=S)NC2CCCCC2)cc1 [Compound 6c, 2-(5-Benzylidene-2,4-dioxothiazolidin-3-yl)-N-(4-(N-(cyclohexylcarbamothioyl)sulfamoyl)phenyl)-acetamide] | 0.7 µM | 8.99 ± 1.2 µM | 7.11 ± 1.7 µM | 8.15 ± 1.6 µM | 0.08 ± 0.02 µM | 0.3 µM |  | 6.93 fold | 6.04 fold |  | 49.26 ± 0.22 µM
CCNC(=S)NS(=O)(=O)c1ccc(NC(=O)CN2C(=O)SC(=Cc3ccc(C)cc3)C2=O)cc1 [Compound 7a, N-(4-(N-(Ethylcarbamothioyl)sulfamoyl)phenyl)-2-(5-(4-methylbenzylidene)-2,4-dioxothiazolidin-3-yl)acetamide] | 0.81 µM | 12.1 ± 1.5 µM | 16.8 ± 1.5 µM | 16.7 ± 1.5 µM | 0.14 ± 0.02 µM | 0.32 µM | 285 to 287 °C | 4.99 fold | 3.58 fold | 3.61 fold | 60.12 ± 0.18 µM
CCNC(=S)NS(=O)(=O)c1ccc(NC(=O)CN2C(=O)SC(=Cc3ccccc3)C2=O)cc1 [Compound 6a, 2-(5-Benzylidene-2,4-dioxothiazolidin-3-yl)-N-(4-(N-(ethylcarbamothioyl)sulfamoyl)phenyl)acetamide] | 0.87 µM | 14.2 ± 2.3 µM | 17.7 ± 2.3 µM | 16.5 ± 2.3 µM | 0.17 ± 0.02 µM | 0.323 µM | 282 to 284 °C | 3.41 fold | 2.74 fold | 2.93 fold | 48.31 ± 0.22 µM
